Earlier results in publication PMC11510164 (Pharmaceuticals, 2024).
Read-outs that look alike come from different tables or passages of the source.

Assays:
rats = conditions: rat, in vivo, po
[1] = pure component (ChCl: solid), ref per cell: 90, 123, 125, 126, 127, 129, 137, 139

| SMILES | Density (g/cm^3) [1] | other results |
| --- | --- | --- |
| CC1CCC(C(C)C)C(O)C1 (racemic) [MNT, (±)-menthol] | 0.89 [90] g/cm^3 | LD50 (rats): 3000 mg/kg |
| N=C(N)NCCC[C@H](N)C(=O)O [Arg, L-Arginine] | 1.42 [126] g/cm^3 |  |
| C[N+](C)(C)CCO [ChCl, Choline chloride] |  | Density [1]: ~1.205 g/mL; Density (sol. 70%): ~1.1 g/mL |
| N[C@@H](CS)C(=O)O [Cys, L-Cysteine] | 1.66 [126] g/cm^3 |  |
| CCCCCCCCCC(=O)O [Dec, Decanoic acid (capric acid)] | 0.89 [126] g/cm^3 |  |
| OC[C@H]1OC(O)(CO)[C@@H](O)[C@@H]1O (stereo partly drawn) [Fru, D-(−)-fructose] | 1.60 [126] g/cm^3 |  |
| O=C(O)CO [Gla, Glycolic acid] | 1.26 [126] g/cm^3 |  |
| OC[C@H]1O[C@H](O)[C@H](O)[C@@H](O)[C@@H]1O [Glu, D-(+)-glucose] | 1.5620 [126] g/cm^3 |  |
| OCC(O)CO [Gly, Glycerol] | 1.26 [129] g/cm^3 |  |
| CC(C)Cc1ccc(C(C)C(=O)O)cc1 (stereo not shown) [IBU, Ibuprofen, reference compound] | 1.03 [123] g/cm^3 |  |
| CCCCCCCCCCCCCC(=O)OC(C)C [IPM, Isoporpyl miristate] | 0.85 [126] g/cm^3 |  |

Second part, led by results:

| Density (g/cm^3) [1] | SMILES | other results |
| --- | --- | --- |
| 1.25 [129] g/cm^3 | C[C@H](O)C(=O)O [Lac, L-lactic acid] |  |
| 0.84 [126] g/cm^3 | C=C(C)[C@H]1CC=C(C)CC1 [Lim, (R)-(+)-limonene] |  |
| 1.20 [125] g/cm^3 | Cc1cccc(Nc2ccccc2C(=O)O)c1C [MFA, Mefenamic acid, reference compound] | water solubility (25 °C): 10 to 20 µg/mL |
| 0.89 [126] g/cm^3 | CCCCCCCC/C=C\CCCCCCCC(=O)O [OLA, Oleic acid] |  |
| 1.90 [126] g/cm^3 | O=C(O)C(=O)O [Oxa, Oxalic acid] |  |
| 1.04 [126] g/cm^3 | CC(O)CO (stereo not shown) [PG, Propylene glycol] |  |
| 1.47 [129] g/cm^3 | OC[C@@H](O)[C@@H](O)[C@H](O)[C@@H](O)CO [Sor, D-(−)-sorbitol] |  |
| 1.50 [137] g/cm^3 | OC[C@@H](O)[C@H](O)[C@@H](O)CO [Xyl, Xylitol] |  |
